Test results: ChEMBL document CHEMBL3352634 (Bioorg Med Chem Lett, 2014)
Positions count from the first letter of the chain named.

Legend:
[1] = molecular target: T1, Peroxisome proliferator-activated receptor alpha (Homo sapiens) (UniProt Q07869); assay: Agonist activity at wild-type human PPARalpha LBD expressed in COS7 cells after 12 hrs by Dual-Glo luciferase assay relative to control; format: cell-based; details: COS-7
T1 sequence (whole entry): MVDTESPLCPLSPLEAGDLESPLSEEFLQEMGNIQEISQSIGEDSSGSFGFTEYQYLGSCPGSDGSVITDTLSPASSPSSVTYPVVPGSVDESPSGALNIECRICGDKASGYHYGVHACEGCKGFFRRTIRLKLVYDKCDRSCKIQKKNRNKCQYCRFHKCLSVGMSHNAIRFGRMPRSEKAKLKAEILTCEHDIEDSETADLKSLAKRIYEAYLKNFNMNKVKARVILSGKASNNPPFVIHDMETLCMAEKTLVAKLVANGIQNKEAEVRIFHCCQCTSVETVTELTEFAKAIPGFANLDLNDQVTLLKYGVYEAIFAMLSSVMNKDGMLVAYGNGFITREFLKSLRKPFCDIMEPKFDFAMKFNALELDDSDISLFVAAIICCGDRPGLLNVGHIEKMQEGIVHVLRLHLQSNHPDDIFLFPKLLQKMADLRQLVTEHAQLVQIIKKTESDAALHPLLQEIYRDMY

[2] = molecular target: T2, Peroxisome proliferator-activated receptor alpha (Homo sapiens, UniProt Q07869); assay: Agonist activity at wild-type human PPARalpha LBD expressed in COS7 cells after 12 hrs by Dual-Glo luciferase assay; format: cell-based, COS-7
T2 sequence (Q07869 whole entry): T1 sequence (whole entry)

[3] = molecular target: T3, Peroxisome proliferator-activated receptor gamma (Homo sapiens, UniProt P37231); assay: Agonist activity at human PPARgamma LBD expressed in COS7 cells after 12 hrs by Dual-Glo luciferase assay; format: cell-based, COS-7
T3 sequence (P37231 whole entry): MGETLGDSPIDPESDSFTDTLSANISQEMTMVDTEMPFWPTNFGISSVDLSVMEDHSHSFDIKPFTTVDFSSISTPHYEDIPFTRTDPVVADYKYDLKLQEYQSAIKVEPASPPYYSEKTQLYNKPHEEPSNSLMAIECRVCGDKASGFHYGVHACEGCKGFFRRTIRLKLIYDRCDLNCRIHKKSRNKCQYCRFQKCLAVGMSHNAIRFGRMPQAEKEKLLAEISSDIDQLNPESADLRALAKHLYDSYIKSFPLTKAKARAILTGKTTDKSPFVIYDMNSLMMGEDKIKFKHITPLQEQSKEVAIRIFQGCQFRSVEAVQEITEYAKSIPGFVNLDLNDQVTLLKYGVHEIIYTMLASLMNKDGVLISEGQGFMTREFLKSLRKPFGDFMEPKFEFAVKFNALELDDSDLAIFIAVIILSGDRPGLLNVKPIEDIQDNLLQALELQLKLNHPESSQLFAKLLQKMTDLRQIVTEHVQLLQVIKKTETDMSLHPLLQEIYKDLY

[4] = molecular target: T4, Peroxisome proliferator-activated receptor gamma (Homo sapiens) (UniProt P37231); assay: Agonist activity at human PPARgamma LBD expressed in COS7 cells after 12 hrs by Dual-Glo luciferase assay relative to pioglitazone; format: cell-based; details: COS-7
T4 sequence (whole entry): T3 sequence (P37231 whole entry)

[5] = system: T5, Peroxisome proliferator-activated receptor alpha (Homo sapiens), Q07869 [T279A]; assay: Agonist activity at wild-type human PPARalpha Thr279Ala mutant expressed in COS7 cells after 12 hrs by Dual-Glo luciferase assay relative to control; format: cell-based; details: COS-7
T5 sequence (whole entry): T1 sequence (whole entry) with T279A

[6] = molecular target: Peroxisome proliferator-activated receptor alpha (Homo sapiens, UniProt Q07869, T279A); assay: Agonist activity at wild-type human PPARalpha Thr279Ala mutant expressed in COS7 cells after 12 hrs by Dual-Glo luciferase assay; format: cell-based, COS-7
Sequence of Peroxisome proliferator-activated receptor alpha (Homo sapiens, UniProt Q07869, T279A) (Q07869 whole entry T279A, the tested form may be a part): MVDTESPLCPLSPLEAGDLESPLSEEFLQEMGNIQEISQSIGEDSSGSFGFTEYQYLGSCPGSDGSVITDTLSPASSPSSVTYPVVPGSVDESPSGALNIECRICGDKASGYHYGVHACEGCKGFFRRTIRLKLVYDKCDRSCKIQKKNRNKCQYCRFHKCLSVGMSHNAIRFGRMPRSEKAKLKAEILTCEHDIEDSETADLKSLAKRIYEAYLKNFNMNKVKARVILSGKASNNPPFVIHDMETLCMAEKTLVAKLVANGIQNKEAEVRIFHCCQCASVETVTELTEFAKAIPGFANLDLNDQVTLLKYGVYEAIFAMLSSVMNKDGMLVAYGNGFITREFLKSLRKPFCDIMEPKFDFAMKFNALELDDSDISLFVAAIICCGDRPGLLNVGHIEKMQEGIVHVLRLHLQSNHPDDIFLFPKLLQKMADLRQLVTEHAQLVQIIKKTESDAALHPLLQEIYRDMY

[7] = molecular target: T1, Peroxisome proliferator-activated receptor alpha (Homo sapiens); assay: Agonist activity at wild-type human PPARalpha LBD expressed in COS7 cells after 12 hrs by Dual-Glo luciferase assay relative to pirinixic acid; format: cell-based; details: COS-7
COS-7 = assay: Selectivity ratio of EC50 for human PPARgamma LBD expressed in COS7 cells to EC50 for wild-type human PPARalpha LBD expressed in COS7 cells; format: cell-based

SMILES | %max [1] | EC50 [2] | EC50 [3] | %max [4] | %max [5] | EC50 [6] | %max [7] | Ratio EC50 (COS-7)
CCCCC(Sc1nc(Cl)cc(Nc2ccc(Nc3ccccc3)cc2)n1)C(=O)O (stereo not drawn) | 137% | 350 nM | 1060 nM | 135% |  |  |  | 
CCCCC(Sc1nc(Cl)cc(Nc2cccc(C)c2C)n1)C(=O)O (stereo not drawn) |  |  |  | 120% |  |  |  | 
CCCCCCC(Sc1nc(Cl)cc(Nc2ccc(C(=O)c3ccccc3)cc2)n1)C(=O)O (stereo not drawn) | 134% | 280 nM | 1200 nM | 117% | 105% | 70 nM |  | 
CCCCCCC(Sc1nc(Cl)cc(Nc2cccc(C)c2C)n1)C(=O)O (stereo not drawn) |  | 1000 nM |  | 139% |  |  | 146% | 
CCCCCCC(Sc1nc(Cl)cc(Nc2ccc(Nc3ccccc3)cc2)n1)C(=O)O (stereo not drawn) | 95% | 70 nM | 690 nM | 126% | 115% | 100 nM |  | > 10
Cc1cccc(Nc2cc(Cl)nc(SCC(=O)O)n2)c1C |  |  |  | 79% |  |  |  | 
O=C(O)CSc1nc(Cl)cc(Nc2ccc(Nc3ccccc3)cc2)n1 | 133% | 12000 nM | 12400 nM | 143% |  |  |  | 
CCCCCCC(Sc1nc(Cl)cc(Nc2ccc(Oc3ccccc3)cc2)n1)C(=O)O (stereo not drawn) | 155% | 280 nM | 2360 nM | 146% | 87% | 150 nM |  | 
CCCCCCC(Sc1nc(Cl)cc(Nc2ccc(Cc3ccccc3)cc2)n1)C(=O)O (stereo not drawn) | 127% | 720 nM | 490 nM | 158% | 83% | 240 nM |  | 
